The nature of this data set: Partition studies between organic solvent and water. Conditions: for affinity to organic solvents as compared to aqueous media / solubility in organic versus aqueous solvents: conclusion in words from the partition studies. The class given is physicochemical. The method, then: 1,2-O-Cyclohexylidene-6-deoxy-β-L-talofuranose (197 mg) was partitioned between water (10 mL) and methylene chloride (10 mL), layers separated and the residual amount of solutions in the separatory funnel were partitioned with extra amount of water (5 mL) and methylene chloride (5 mL). The combined organic phases were evaporated and dried in vacuo (50° C., <1 mbar, 1 hour) to give 140 mg of the title compound. The aqueous solution gave 53 mg after lyophilisation and drying in vacuo (50° C., <1 mbar, 2 hrs). Using the same procedure, partition between ethyl acetate and water provided 127 mg of the title compound from ethyl acetate phase and 70 mg from the aqueous phase.
Analogously, 1,2-O-isopropylidene-6-deoxy-β-L-talofuranose (150 mg) was partitioned between methylene chloride (24 mg) and aqueous phase (126 mg). Partition between ethyl acetate and water furnished 7 mg and 143 mg of the title compound, respectively.

As to `C[C@H](O)[C@H]1O[C@@H]2OC(C)(C)O[C@@H]2[C@@H]1O` [1,2-O-isopropylidene-6-deoxy-β-L-talofuranose], the “affinity to organic solvents as compared to aqueous media” value is recorded as “higher affinity to aqueous medium”; the “solubility in organic versus aqueous solvents” value is “highly soluble in aqueous solutions and almost insoluble in organic solvents”. The molecule also displayed a logP (solvent system CH2Cl2-water) of 0.72. The logP (solvent system ethyl acetate-water) amounted to 0.79.
On to `C[C@H](O)[C@H]1O[C@@H]2OC3(CCCCC3)O[C@@H]2[C@@H]1O` [6-deoxy-1,2-O-cyclohexylidene-β-L-talofuranose], for which the “affinity to organic solvents as compared to aqueous media” value is “higher affinity to organic solvents as compared to aqueous media” and the “solubility in organic versus aqueous solvents” value is listed as “much higher solubility of compound 1G in organic solvents as compared to aqueous solvents”.
